Source: patent US9000191B2, “Serotonin reuptake inhibitors” (Theravance Biopharma R&D IP, LLC, priority 2010, dated 2015)

Biological target: T1, hSERT (Homo sapiens, UniProt P31645)
T1 construct: expressed in transfected cells; host or cells: HEK293 (stably transfected, G418 selection)
Assay: hSERT neurotransmitter uptake assay
Type: cell-based
Settings: serotonin reuptake inhibition, HEK293-hSERT cells; read-out: SERT pIC50 (converted)
Experimental: Neurotransmitter uptake assays were used to measure inhibition of ^3H-serotonin (^3H-5-HT) uptake into cells expressing hSERT in order to determine the pIC50 values of test compounds at the transporter, similar to the procedures described in Tsuruda et al. (2010) Journal of Pharmacological and Toxicological Methods 61(2):192-204.
HEK293 cells stably-transfected with human recombinant SERT (HEK293-hSERT) were grown in DMEM medium supplemented with 10% dialyzed fetal bovine serum, 100 μg/ml penicillin, 100 μg/ml streptomycin, 2 mM L-glutamine, and 250 μg/ml of the aminoglycoside antibiotic G418. Cells were incubated in a 5% CO2, humidified incubator at 37° C.
The neurotransmitter uptake assay was performed in a 96-well assay plate in a total volume of 100 μL assay buffer containing HEK293-hSERT cells (7500-10,000 cells/well; plated ˜2 hours prior to assay initiation. Neurotransmitter Transporter Uptake Assay dye (0.5 μM), and eleven different concentrations of compound ranging from 10 μM to […] was used. Non-specific uptake was determined in the presence of indatraline (2.5 μM). The final assay buffer was 12.5 mM Tris-HCl, 5 mM HEPES, 3 mM NaHCO3, 0.3 mM KH2PO4, 0.25 mM Na2HPO4, 130 mM NaCl, 5 mM KCl, 1 mM CaCl2, 0.4 mM MgCl2, 0.3 mM MgSO4, 4 mM D-glucose, 0.025% BSA, 0.1 mM ascorbic acid, pH 7.4.
In pre-incubation studies, test compound was added to cells for 30 minutes at 37° C. prior to the addition of fluorescent substrate. For determination of inhibitory potency, a 10-30 minute endpoint substrate accumulation was determined by fluorescence spectroscopy using a Safire (Tecan Group Ltd., Minnendorf, Switzerland) and analysis was performed as described in Tsuruda et al., supra. For real-time measurements, compounds were either preincubated (as above) or mixed with substrate prior to addition, and kinetic measurements, relative fluorescence units (RFU integrated over 0.5 ms), were made using a cycle time of 1 min.

T1 sequence (P31645 whole entry): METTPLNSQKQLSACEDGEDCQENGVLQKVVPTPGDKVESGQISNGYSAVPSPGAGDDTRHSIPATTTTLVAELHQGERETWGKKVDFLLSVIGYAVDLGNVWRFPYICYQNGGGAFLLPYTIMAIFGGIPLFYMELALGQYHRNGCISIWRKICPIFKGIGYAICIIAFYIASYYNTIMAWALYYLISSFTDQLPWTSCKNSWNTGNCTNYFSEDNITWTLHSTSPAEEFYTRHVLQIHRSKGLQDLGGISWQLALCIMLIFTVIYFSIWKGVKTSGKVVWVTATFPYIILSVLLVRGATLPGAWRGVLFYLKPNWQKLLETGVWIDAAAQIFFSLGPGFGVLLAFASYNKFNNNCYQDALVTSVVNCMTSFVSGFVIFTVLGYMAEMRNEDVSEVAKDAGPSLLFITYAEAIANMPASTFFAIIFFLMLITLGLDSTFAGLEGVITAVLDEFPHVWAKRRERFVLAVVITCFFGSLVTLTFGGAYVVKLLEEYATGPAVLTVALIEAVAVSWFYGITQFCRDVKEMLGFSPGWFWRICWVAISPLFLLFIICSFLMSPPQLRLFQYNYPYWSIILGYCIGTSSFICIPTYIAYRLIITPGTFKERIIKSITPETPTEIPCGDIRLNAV

Q: Which IC50 does the source give for `CS(=O)(=O)C[C@@H](Oc1ccc(C(F)(F)F)cc1)[C@@H]1CCNC1` [Example 2-3, (R)-3-[(S)-2-Methanesulfonyl-1-(4-trifluoromethylphenoxy)ethyl]pyrrolidine] here?
A: ≤ 10 nM

Q: For `CS(=O)(=O)C[C@H](Oc1ccc(C(F)(F)F)c(C#N)c1)[C@H]1CCNC1` (stereo in doubt) [Example 2-21, 5-((S)-2-Methanesulfonyl-1-(R)-pyrrolidin-3-ylethoxy)-2-trifluoromethyl-benzonitrile], which IC50 is on record?
A: ≤ 10 nM

Q: `CS(=O)(=O)C[C@H](Oc1ccc(Cl)c(C#N)c1)[C@H]1CCNC1` (stereo in doubt) [Example 2-24, 2-Chloro-5-((S)-2-methanesulfonyl-1-(R)-pyrrolidin-3-ylethoxy)benzonitrile] was tested. Which IC50 did it give?
A: ≤ 10 nM

Q: For `CS(=O)(=O)C[C@@H](Oc1ccc(Cl)c(C#N)c1)[C@@H]1CCNC1` (stereo in doubt) [Example 2-23, 2-Chloro-5-((R)-2-methanesulfonyl-1-(S)-pyrrolidin-3-ylethoxy)benzonitrile], which IC50 is on record?
A: ≤ 100 nM

Q: With `CS(=O)(=O)C[C@@H](Oc1ccc(Cl)cn1)[C@H]1CCNC1` [Example 4-1, 5-Chloro-2-((S)-2-methanesulfonyl-1-(S)-pyrrolidin-3-ylethoxy)pyridine] as the compound, how does the IC50 read?
A: ≤ 100 nM

Q: How did the IC50 turn out when `COc1cc([N+](=O)[O-])ccc1O[C@@H](CS(C)(=O)=O)[C@H]1CCNC1` [Example 2-25, (S)-3-[(R)-2-Methanesulfonyl-1-(2-methoxy-4-nitrophenoxy)ethyl]pyrrolidine] was run?
A: ≤ 100 nM

Q: With `O=S(=O)(C[C@@H](Oc1ccc(C(F)(F)F)cc1)[C@H]1CCNC1)c1ccccc1` [Example 2-17, (S)-3-[(S)-2-Benzenesulfonyl-1-(4-trifluoromethylphenoxy)ethyl]pyrrolidine] as the compound, how does the IC50 read?
A: ≤ 10 nM

Q: Which IC50 does the source give for `CS(=O)(=O)CCC(Oc1ccc(C(F)(F)F)cc1)[C@H]1CCNC1` (single isomer, unassigned) [Example 8-3] here?
A: ≤ 100 nM

Q: For `CS(=O)(=O)C[C@H](Oc1ccc([N+](=O)[O-])cc1)[C@H]1CCNC1` [Example 2-6, (S)-3-[(R)-2-Methanesulfonyl-1-(4-nitro-phenoxy)ethyl]pyrrolidine], which IC50 is on record?
A: ≤ 100 nM

Q: `CS(=O)(=O)C[C@@H](Oc1ccc([N+](=O)[O-])cc1)[C@H]1CCNC1` [Example 2-5, (S)-3-[(S)-2-Methanesulfonyl-1-(4-nitrophenoxy)ethyl]pyrrolidine] was tested. Which IC50 did it give?
A: ≤ 100 nM

Q: `CC(C)S(=O)(=O)CCC(Oc1ccc(C(F)(F)F)cc1)[C@H]1CCNC1` (single isomer, unassigned) [Example 8-5] was tested. Which IC50 did it give?
A: ≤ 10 nM

Q: With `CC(=O)Nc1ccc(S(=O)(=O)C[C@@H](Oc2ccc(C(F)(F)F)cc2)[C@H]2CCNC2)cc1` [Example 2-18, N-{4-[(S)-2-(S)-Pyrrolidin-3-yl-2-(4-trifluoromethylphenoxy)ethanesulfonyl]-phenyl}-acetamide] as the compound, how does the IC50 read?
A: ≤ 10 nM

Q: `CS(=O)(=O)C[C@@H](Oc1ccc(C(F)(F)F)cn1)[C@H]1CCNC1` [Example 4-3, 2-((S)-2-Methanesulfonyl-1-(S)-pyrrolidin-3-yl-ethoxy)-5-trifluoromethyl-pyridine] was tested. Which IC50 did it give?
A: ≤ 10 nM

Q: How did the IC50 turn out when `CS(=O)(=O)C[C@@H](Oc1ccc(C(F)(F)F)nc1)[C@H]1CCNC1` [Example 6-2, 5-((S)-2-Methanesulfonyl-1-(S)-pyrrolidin-3-ylethoxy)-2-trifluoromethylpyridine] was run?
A: ≤ 100 nM

Q: Which IC50 does the source give for `CS(=O)(=O)C[C@H](Oc1ccc(Cl)cn1)[C@H]1CCNC1` (stereo in doubt) [Example 4-2, 5-Chloro-2-((S)-2-methanesulfonyl-1-(R)-pyrrolidin-3-ylethoxy)pyridine] here?
A: ≤ 100 nM

Q: With `CS(=O)(=O)C[C@@H](Oc1ccc(OC(F)(F)F)cc1)[C@H]1CCNC1` [Example 2-9, (S)-3-[(S)-2-Methanesulfonyl-1-(4-trifluoromethoxyphenoxy)ethyl]pyrrolidine] as the compound, how does the IC50 read?
A: ≤ 100 nM

Q: Which IC50 does the source give for `CS(=O)(=O)C[C@H](Oc1ccc(C(F)(F)F)cc1)[C@@H]1CCNC1` [Example 2-2, (R)-3-[(R)-2-Methanesulfonyl-1-(4-trifluoromethylphenoxy)ethyl]pyrrolidine] here?
A: ≤ 10 nM

Q: For `CS(=O)(=O)C[C@@H](Oc1ccc(C(F)(F)F)nc1)[C@@H]1CCNC1` [Example 5], which IC50 is on record?
A: ≤ 100 nM
